Consider 1 molecule from patent publication EP3463364B1, “PYRAZINE DERIVATIVES FOR USE IN THE TREATMENT OF DISEASES ASSOCIATED WITH CELL CYCLE DYSREGULATION” (University of Patras, priority 2016, dated 2017).

The test relates to Mouse Embryonic Fibroblasts, MEFs. The test is described as follows: Cell cycle progression by propidium iodide flow cytometry, normal (primary) cells. The format is cell-based. The settings on record: 100 µM, 23hrs, compared to DMSO control (Fig. 5D vs 5C). As to the method:
Since the proteins Geminin and Cdtl are key regulators of the cell cycle, the effect of the synthetic compound on the development of the cancer cell and normal cell cycle was studied. Staining of the genetic material of the cells was performed with propidium iodide and the technique of flow cytometry was applied for their separation, based on the amount of genetic material.
MCF7 cells were used as cancer cells, whereas primary cells and particularly embryonic mouse fibroblasts (Mouse Embryonic Fibroblasts, MEFs) were used as normal cells. The cells were incubated with the synthetic chemical compound AF-615/30368009 at a concentration of 100 µM and cultured for 23hrs in 100-mm dishes, to 80% confluency. Cells which had been incubated with only DMSO were used as a negative control sample. The next day of the incubation, cells were harvested using trypsin. […] The experiments were conducted using a Becton Dickinson flow cytometer and the data were analyzed by the WinMDi software version 2.8. […]
The graphs shown in Fig. 5 are representative of at least two independent experiments. The x axis represents the intensity of the fluorescence of propidium iodide and proportionally the amount of DNA content of the cells, while the y-axis corresponds to the number of events for each phase of the cell cycle.
(A flow cytometer gives signals particle by particle.)

For `O=C(NNC(=S)N1CCOCC1)c1cnccn1` [AF-615/30368009, N'-(morpholine-4-carbothioyl)pyrazine-2-carbohydrazide], the “percentage of cells in G2/M phase” value is listed as “mild reduction”; the “percentage of cells in phase G0/G1 and S” value is recorded as “no significant change”.
